Laboratory results reported in US8802597B2, “Herbicidal pyrimidines” (E I du Pont de Nemours and Company, priority 2003, dated 2014).

Key:
Type in all cases: in vivo
[1] = system: umbrella sedge (Cyperus difformis); experiment: Test C flooded paddy test; conditions: Flood, scale 0 to 100
In short: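 Visual rating, 0 (no effect) to 100 (complete control), versus untreated plants. Flooded paddy; 2-leaf stage at treatment; greenhouse hold 12–14 d. Dash = no test result.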

[2] = system: barnyardgrass (Echinochloa crus-galli); experiment: Test E flooded paddy water application; conditions: Flood, 21 days, scale 0 to 100 (0 no effect, 100 complete control)
In short: (§1)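 Greenhouse pots of Tama silt loam with weeds and rice at 2.0–2.5-leaf stage, flooded to 3 cm; compounds applied directly into paddy water, depth maintained. Visual rating versus untreated controls after 21 days, 0 (no effect) to 100 (complete control); 29.5/26.7 °C, 16-h photoperiod.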

[3] = system: bearded (brdd.) sprangletop (Leptochloa fusca ssp. fascicularis); experiment: Test E flooded paddy water application; conditions: Flood, 21 days, scale 0 to 100 (0 no effect, 100 complete control)
In short: as §1

[4] = system: ducksalad (Heteranthera limosa); experiment: Test E flooded paddy water application; conditions: Flood, 21 days, scale 0 to 100 (0 no effect, 100 complete control)
In short: as §1

[5] = system: early watergrass (Echinochloa oryzoides); experiment: Test E flooded paddy water application; conditions: Flood, 21 days, scale 0 to 100 (0 no effect, 100 complete control)
In short: as §1

[6] = system: junglerice (Echinochloa colona); experiment: Test E flooded paddy water application; conditions: Flood, 21 days, scale 0 to 100 (0 no effect, 100 complete control)
In short: as §1

[7] = system: late watergrass (Echinochloa oryzicola); experiment: Test E flooded paddy water application; conditions: Flood, 21 days, scale 0 to 100 (0 no effect, 100 complete control)
In short: as §1

[8] = system: purple redstem (Ammannia coccinea); experiment: Test E flooded paddy water application; conditions: Flood, 21 days, scale 0 to 100 (0 no effect, 100 complete control)
In short: as §1

[9] = system: rice flatsedge (Cyperus iria); experiment: Test E flooded paddy water application; conditions: Flood, 21 days, scale 0 to 100 (0 no effect, 100 complete control)
In short: as §1

[10] = system: smallflower umbrella sedge (Cyperus difformis); experiment: Test E flooded paddy water application; conditions: Flood, 21 days, scale 0 to 100 (0 no effect, 100 complete control)
In short: as §1

[11] = system: transplanted rice seedlings (Oryza sativa cv. ‘Japonica-M202’); experiment: Test E flooded paddy water application; conditions: Flood, 21 days, scale 0 to 100 (0 no effect, 100 complete control)
In short: as §1

[12] = system: water seeded rice seedlings (Oryza sativa cv. ‘Japonica-M202’); experiment: Test E flooded paddy water application; conditions: Flood, 21 days, scale 0 to 100 (0 no effect, 100 complete control)
In short: as §1

SMILES: COC(=O)c1nc(C2CC2)nc(N)c1Cl [Compound 9, methyl 6-amino-5-chloro-2-cyclopropyl-4-pyrimidinecarboxylate]
- Plant response rating, Sedge, Umbrella ([1]; 62 g ai/ha): 0
- Plant response rating, Sedge, Umbrella ([1]; 125 g ai/ha): 15
- Plant response rating, Sedge, Umbrella ([1]; 250 g ai/ha): 15
- Plant response rating, Sedge, Umbrella ([1]; 500 g ai/ha): 85

SMILES: COC(=O)c1nc(C2CC2)nc(N)c1Br [Compound 2, methyl 6-amino-5-bromo-2-cyclopropyl-4-pyrimidinecarboxylate]
- Plant response rating, Sedge, Umbrella ([1]; 62 g ai/ha): 0
- Plant response rating, Sedge, Umbrella ([1]; 125 g ai/ha): 0
- Plant response rating, Sedge, Umbrella ([1]; 250 g ai/ha): 0
- Plant response rating, Sedge, Umbrella ([1]; 500 g ai/ha): 25

SMILES: Nc1nc(C2CC2)nc(C=O)c1Br [Compound 26]
- Plant response rating, Sedge, Umbrella ([1]; 62 g ai/ha): 0
- Plant response rating, Sedge, Umbrella ([1]; 125 g ai/ha): 0
- Plant response rating, Sedge, Umbrella ([1]; 250 g ai/ha): 20
- Plant response rating, Sedge, Umbrella ([1]; 500 g ai/ha): 20

SMILES: CC(C)COC(=O)c1nc(C2CC2)nc(N)c1Br [Compound 17]
- Plant response rating, Sedge, Umbrella ([1]; 62 g ai/ha): 0
- Plant response rating, Sedge, Umbrella ([1]; 125 g ai/ha): 0
- Plant response rating, Sedge, Umbrella ([1]; 250 g ai/ha): 20
- Plant response rating, Sedge, Umbrella ([1]; 500 g ai/ha): 25

SMILES: CCOC(=O)c1nc(C2CC2)nc(N)c1Br [Compound 1, ethyl 6-amino-5-bromo-2-cyclopropyl-4-pyrimidinecarboxylate]
- Plant response rating, Sedge, Umbrella ([1]; 62 g ai/ha): 0
- Plant response rating, Sedge, Umbrella ([1]; 250 g ai/ha): 0
- Plant response rating, Sedge, Umbrella ([1]; 500 g ai/ha): 0

SMILES: Nc1nc(C2CC2)nc(C(=O)OCc2ccccc2)c1Br [Compound 22, phenylmethyl 6-amino-5-bromo-2-cyclopropyl-4-pyrimidinecarboxylate]
- Plant response rating, Sedge, Umbrella ([1]; 62 g ai/ha): 0
- Plant response rating, Sedge, Umbrella ([1]; 125 g ai/ha): 30
- Plant response rating, Sedge, Umbrella ([1]; 250 g ai/ha): 75
- Plant response rating, Sedge, Umbrella ([1]; 500 g ai/ha): 95

SMILES: CCCOC(=O)c1nc(C2CC2)nc(N)c1Br [Compound 15]
- Plant response rating, Sedge, Umbrella ([1]; 62 g ai/ha): 0
- Plant response rating, Sedge, Umbrella ([1]; 125 g ai/ha): 0
- Plant response rating, Sedge, Umbrella ([1]; 250 g ai/ha): 10
- Plant response rating, Sedge, Umbrella ([1]; 500 g ai/ha): 25

SMILES: CCOC(=O)c1nc(-c2ccc3c(c2)OCO3)nc(N)c1Cl [Compound 74]
- Barnyardgrass plant response rating ([2]; 32 g ai/ha): 0
- Barnyardgrass plant response rating ([2]; 64 g ai/ha): 0
- Barnyardgrass plant response rating ([2]; 250 g ai/ha): 0
- Plant response rating, Barnyardgrass ([2]; 16 g ai/ha): 0
- Sprangletop, Brdd. plant response rating ([3]; 32 g ai/ha): 0
- Sprangletop, Brdd. plant response rating ([3]; 64 g ai/ha): 0
- Sprangletop, Brdd. plant response rating ([3]; 125 g ai/ha): 0
- Sprangletop, Brdd. plant response rating ([3]; 250 g ai/ha): 0
- Plant response rating, Sprangletop, Brdd. ([3]; 16 g ai/ha): 0
- Ducksalad plant response rating ([4]; 32 g ai/ha): 100
- Ducksalad plant response rating ([4]; 64 g ai/ha): 100
- Ducksalad plant response rating ([4]; 125 g ai/ha): 100
- Ducksalad plant response rating ([4]; 250 g ai/ha): 100
- Plant response rating, Ducksalad ([4]; 16 g ai/ha): 100
- Watergrass, Early plant response rating ([5]; 32 g ai/ha): 0
- Watergrass, Early plant response rating ([5]; 64 g ai/ha): 0
- Watergrass, Early plant response rating ([5]; 125 g ai/ha): 0
- Watergrass, Early plant response rating ([5]; 250 g ai/ha): 0
- Plant response rating, Watergrass, Early ([5]; 16 g ai/ha): 0
- Junglerice plant response rating ([6]; 32 g ai/ha): 0
- Junglerice plant response rating ([6]; 64 g ai/ha): 0
- Junglerice plant response rating ([6]; 125 g ai/ha): 0
- Junglerice plant response rating ([6]; 250 g ai/ha): 65
- Plant response rating, Junglerice ([6]; 16 g ai/ha): 0
- Watergrass, Late plant response rating ([7]; 32 g ai/ha): 0
- Watergrass, Late plant response rating ([7]; 64 g ai/ha): 0
- Watergrass, Late plant response rating ([7]; 125 g ai/ha): 0
- Watergrass, Late plant response rating ([7]; 250 g ai/ha): 0
- Plant response rating, Watergrass, Late ([7]; 16 g ai/ha): 0
- Redstem plant response rating ([8]; 32 g ai/ha): 0
- Redstem plant response rating ([8]; 64 g ai/ha): 0
- Redstem plant response rating ([8]; 125 g ai/ha): 20
- Redstem plant response rating ([8]; 250 g ai/ha): 25
- Plant response rating, Redstem ([8]; 16 g ai/ha): 0
- Flatsedge, Rice plant response rating ([9]; 32 g ai/ha): 0
- Flatsedge, Rice plant response rating ([9]; 64 g ai/ha): 0
- Flatsedge, Rice plant response rating ([9]; 125 g ai/ha): 90
- Flatsedge, Rice plant response rating ([9]; 250 g ai/ha): 95
- Plant response rating, Flatsedge, Rice ([9]; 16 g ai/ha): 0
- Sedge, Umbrella plant response rating ([10]; 32 g ai/ha): 0
- Sedge, Umbrella plant response rating ([10]; 64 g ai/ha): 80
- Sedge, Umbrella plant response rating ([10]; 125 g ai/ha): 95
- Sedge, Umbrella plant response rating ([10]; 250 g ai/ha): 100
- Plant response rating, Sedge, Umbrella ([10]; 16 g ai/ha): 0
- Rice, Transplanted plant response rating ([11]; 32 g ai/ha): 0
- Rice, Transplanted plant response rating ([11]; 64 g ai/ha): 0
- Rice, Transplanted plant response rating ([11]; 125 g ai/ha): 0
- Rice, Transplanted plant response rating ([11]; 250 g ai/ha): 0
- Plant response rating, Rice, Transplanted ([11]; 16 g ai/ha): 0
- Rice, Water Seeded plant response rating ([12]; 32 g ai/ha): 0
- Rice, Water Seeded plant response rating ([12]; 64 g ai/ha): 0
- Rice, Water Seeded plant response rating ([12]; 125 g ai/ha): 0
- Rice, Water Seeded plant response rating ([12]; 250 g ai/ha): 0
- Plant response rating, Rice, Water Seeded ([12]; 16 g ai/ha): 0
